Measured values taken from PubChem BioAssay (NCI).
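Step 1: Grow cells in 96-well plates. Step 2: Expose to compound for 48 hours at 5 concentrations. Step 3: Interpolate endpoints linearly; if unreached, use highest concentration. TGI denotes the concentration required for complete inhibition of growth.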 Where a SMILES comes first, the peptide text is derived from it. The star is where a group is joined. Boc = CC(C)(C)OC(=O)*

Experiments:
Test in all cases: DTP human tumour cell line panel, 48 h
[1] = system: MCF7 breast
[2] = system: 786-0 renal
[3] = system: NCI-H460 lung
[4] = system: SF-295 CNS
[5] = system: NCI-H226 lung
[6] = system: SF-268 CNS
[7] = system: NCI-H522 lung
[8] = system: A549 NSCLC
[9] = system: SN12C renal
[10] = system: DU-145 prostate
[11] = system: LOX IMVI melanoma
[12] = system: IGROV1 ovarian
[13] = system: SK-MEL-28 melanoma
[14] = system: SW-620 colon
[15] = system: UO-31 renal
[16] = system: SF-539 CNS

Row | SMILES | TGI [1] [µM] | TGI [2] [µM] | TGI [3] [µM] | TGI [4] [µM] | TGI [5] [µM] | TGI [6] [µM] | TGI [7] [µM] | TGI [8] [µM] | TGI [9] [µM] | TGI [10] [µM] | TGI [11] [µM] | TGI [12] [µM] | TGI [13] [µM] | TGI [14] [µM] | TGI [15] [µM] | TGI [16] [µM]
1 | Cc1ccc([N+](=O)[O-])c2c(NCCNC(=O)Cn3ccnc3[N+](=O)[O-])ccnc12 | 44.2 | > 100 | > 100 | 43.3 | 88 | > 100 | 38 | > 100 | > 100 | > 100 | > 100 | 86.6 | > 100 | > 100 | > 100 | > 100
2 | C[C@H]1O[C@@H](c2c(O)ccc3ccccc23)C[C@@H](N(C)C)C1O (some centres undefined) | > 100 | > 100 | > 100 | > 100 | > 100 | > 100 | > 100 | > 100 | > 100 | > 100 | > 100 | > 100 | > 100 | > 100 | > 100 | > 100
3 | CC1(c2ccc(F)cc2)CC(c2ccc(F)cc2)=C(C#N)C(=C(C#N)C#N)N1 (centres undefined) | 32.5 | 29.3 | 38.2 | 37.1 | 82.1 | 37 | – | 41.7 | 34.5 | 28.5 | 38.6 | 32.3 | 47.3 | 62.1 | 32 | 78.4
4 | COC(OC)C1OC(CO)C(n2cc(C)c(=O)[nH]c2=O)C1O (centres undefined) | > 100 | > 100 | > 100 | > 100 | > 100 | > 100 | > 100 | > 100 | > 100 | > 100 | > 100 | > 100 | > 100 | > 100 | > 100 | > 100
5 | O=[N+]([O-])C(Cl)C(Cl)C(Cl)=C(Cl)Cl (centres undefined) | > 54.9 | 22.3 | > 100 | > 100 | > 100 | > 70.5 | 38.4 | > 100 | > 57.7 | > 100 | 28.8 | 18.3 | 39 | 38.3 | > 31.6 | > 70
6 | O=c1cc(-c2ccccc2)[nH]c2cc(F)c(F)cc12 | > 71.9 | 4.18 | > 100 | > 100 | > 26.4 | > 20.8 | 10.8 | > 31.5 | > 100 | 34.1 | > 100 | > 54.1 | > 100 | > 100 | > 100 | 2.33
7 | CC(C)=CCC[C@@H](C)C1=C(O)C(Nc2ccccc2Br)=C(C)C(=O)C1=O | 39.7 | 51.2 | > 64.8 | 28.1 | 34.2 | > 50.4 | – | 44.6 | 28.2 | 20.7 | > 100 | 37.3 | > 80.6 | 52.1 | 35.7 | 25.1
8 | N#Cc1c(-c2ccc(Cl)cc2)cc(-c2ccc(Nc3ccnc4cc(C(F)(F)F)ccc34)cc2)[nH]c1=O | > 100 | 24.9 | > 100 | > 87.1 | > 100 | > 100 | > 100 | > 100 | > 100 | > 48.5 | > 23.5 | > 100 | > 34.6 | > 84.2 | – | 18.5
9 | CC(NC(=O)C(NC(=O)OC(C)(C)C)C(C)C)C(=O)N1CCCC1C(=O)NCC(=O)NC(C(=O)NCC(=O)O)C(C)C (centres undefined) (Boc-VAPGVG-OH; configuration not given here) | > 100 | > 100 | > 100 | > 100 | – | > 100 | > 100 | – | > 100 | > 100 | > 100 | > 100 | > 100 | > 100 | > 100 | > 100
10 | CC(=O)OC1CCN(C(=O)c2ccccc2)CC1CC1(c2cc3ccccc3[nH]2)OCCO1 (centres undefined) | > 100 | > 100 | – | > 100 | > 100 | – | > 100 | > 100 | > 100 | > 100 | > 100 | > 100 | > 100 | > 100 | > 100 | –
11 | COc1cc(N=CN(C)C)c2ncccc2c1 | > 100 | > 100 | – | > 100 | > 100 | > 100 | > 100 | > 100 | > 100 | > 100 | > 100 | > 100 | > 100 | – | > 100 | > 100
12 | CCc1n[nH]c(=S)n1/N=C\c1ccc(-c2ccccc2Cl)o1 | > 100 | 86.6 | > 100 | > 100 | 41.6 | > 100 | 65.8 | > 100 | > 100 | > 100 | 66.6 | > 100 | – | > 100 | > 100 | 61.9
13 | Cc1cc(C)nc(NS(=O)(=O)c2ccc(Nc3nncc(=O)n3N)cc2)n1 | 30.3 | 29.2 | > 100 | > 100 | – | 39.7 | 26.2 | > 100 | – | > 100 | 27.7 | 33.1 | 74.6 | 44.2 | 33.9 | > 100
14 | C#CCOC(=O)c1ccccc1O | > 100 | > 100 | > 100 | > 100 | > 100 | > 100 | > 100 | – | > 100 | > 100 | > 100 | > 100 | – | > 100 | > 100 | > 100
15 | CCCCCCCC1(N=[N+]=[N-])C(=O)c2ccccc2N(C)C1=O (centres undefined) | > 100 | > 100 | > 100 | > 100 | > 100 | > 100 | > 100 | > 100 | > 100 | > 100 | > 100 | > 100 | > 100 | > 100 | – | > 100
